Data from US20150374767A1, “Treatment of Cancer” (priority 2013, published 2015).
Where two headings read alike, the source gives them in different places.

Assays:
Virttu cell line panel = assay: cells; type: cell-based; conditions: Homo sapiens
Virttu cell panel = assay: combination with HSV1716, DCP cell death, Chou-Talalay analysis, cell panel; type: cell-based, human; conditions: for number of cell lines tested in which antagonism was detected: drug + HSV1716 moi 0.5 and 0.05, cell death by DCP after 72 hours
Hep3B = type: cell-based, human
U87 = type: cell-based, human
UVW = type: cell-based, human
A431 = type: cell-based, human
[1] = system: human gastric carcinoma xenograft; assay: patient-derived human gastric carcinoma xenograft model; set-up: species or system mice; conditions: mouse, in vivo
Procedure: HSV1716 (Seprehvir) was used in a personalised oncology study. Patient-derived tumour samples were obtained from a gastric carcinoma. There have been no previous in vitro or in vivo pre-clinical studies with Seprehvir in human gastric carcinoma cells/xenografts. Seprehvir was stored at −70° C., and multiple vials were provided to avoid repeated freeze/thawing.
Two groups of 3 mice with gastric carcinoma implants were treated with 2×10^6 pfu Seprehvir by either intratumoural (IT) or intravenous (IV) routes of administration. Control mice (n=3) received no treatment and in these mice the implants grew rapidly and all were sacrificed within 18 days (FIG. 61). For IV injection, Seprehvir was administered on days 0, 3, 10 and 18, at which point the tumors were too large and the mice were sacrificed.
For IT injection of Seprehvir, 2×10^6 pfu was administered on days 0, 3, 10, 18, 21 and 25.
. Control mice (n=3) received no treatment and in these mice the implants grew rapidly and all were sacrificed within 18 days (FIG. 62). […]. A follow-on study with HSV1716 administering more frequent by IV dosing at the higher concentration of 10^7 pfu was performed using the same human gastric carcinoma xenograft model. […].
Groups of 3 mice received IV injection of HSV1716 at 1×10^7 pfu on days 1, 3, 5, 8, 10, 12, 15, 17 and 19. […]

A431 cells [2] = assay: cells; conditions: Homo sapiens, A-431, 72 h, read-out: IC50 (DCP leakage)
A431 cells [3] = conditions: read-out: IC50 in A431 cells, previously reported; cited from earlier work
[4] = system: EGFR- or ErbB2-overexpressing cells; conditions: read-out: IC50, growth of EGFR- or ErbB2-overexpressing cells; cited from earlier work
[5] = system: cells expressing low levels of EGFR or ErbB2; conditions: read-out: IC50, cells expressing low levels of EGFR or ErbB2; cited from earlier work
Flt3^D835Y = Flt3^D835Y (Homo sapiens, UniProt P36888, D835Y); conditions: cited from earlier work
VEGFR3 = VEGFR3 (Homo sapiens, UniProt P35916); conditions: cited from earlier work
Chain of VEGFR3 (P35916 25-1363): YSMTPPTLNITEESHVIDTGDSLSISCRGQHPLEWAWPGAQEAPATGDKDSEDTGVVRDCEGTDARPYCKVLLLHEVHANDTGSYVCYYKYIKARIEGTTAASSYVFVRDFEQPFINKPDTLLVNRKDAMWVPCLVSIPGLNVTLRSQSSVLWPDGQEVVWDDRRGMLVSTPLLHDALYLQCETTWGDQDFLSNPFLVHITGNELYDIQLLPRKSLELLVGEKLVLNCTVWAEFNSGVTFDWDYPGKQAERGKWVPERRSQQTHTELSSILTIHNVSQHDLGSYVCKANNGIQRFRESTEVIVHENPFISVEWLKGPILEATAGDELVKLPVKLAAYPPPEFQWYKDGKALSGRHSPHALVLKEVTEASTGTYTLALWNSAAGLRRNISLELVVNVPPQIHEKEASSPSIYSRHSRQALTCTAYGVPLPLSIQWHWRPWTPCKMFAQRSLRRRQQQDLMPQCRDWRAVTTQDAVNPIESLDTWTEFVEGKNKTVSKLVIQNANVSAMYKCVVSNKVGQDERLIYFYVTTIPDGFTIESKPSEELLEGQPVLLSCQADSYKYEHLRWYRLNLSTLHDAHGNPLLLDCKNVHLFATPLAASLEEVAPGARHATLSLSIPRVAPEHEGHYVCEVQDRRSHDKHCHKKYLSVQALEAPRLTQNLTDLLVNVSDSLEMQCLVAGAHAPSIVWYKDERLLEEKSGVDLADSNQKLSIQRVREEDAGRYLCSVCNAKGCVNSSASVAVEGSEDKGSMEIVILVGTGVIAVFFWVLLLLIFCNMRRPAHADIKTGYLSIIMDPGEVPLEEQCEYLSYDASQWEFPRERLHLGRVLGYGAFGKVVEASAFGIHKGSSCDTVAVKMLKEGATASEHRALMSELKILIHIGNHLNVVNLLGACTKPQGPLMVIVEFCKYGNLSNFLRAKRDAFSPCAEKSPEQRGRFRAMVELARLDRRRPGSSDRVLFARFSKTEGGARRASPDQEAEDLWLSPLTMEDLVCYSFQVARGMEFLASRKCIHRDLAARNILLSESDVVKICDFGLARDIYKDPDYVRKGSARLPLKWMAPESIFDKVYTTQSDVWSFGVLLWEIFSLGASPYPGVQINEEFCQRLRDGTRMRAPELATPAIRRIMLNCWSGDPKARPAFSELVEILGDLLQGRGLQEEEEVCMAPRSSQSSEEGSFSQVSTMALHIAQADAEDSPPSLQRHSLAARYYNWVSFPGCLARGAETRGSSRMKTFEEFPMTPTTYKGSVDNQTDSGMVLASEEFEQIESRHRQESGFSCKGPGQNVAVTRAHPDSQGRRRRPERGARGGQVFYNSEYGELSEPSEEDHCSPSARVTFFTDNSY

IR = IR (Homo sapiens, UniProt P06213); conditions: cited from earlier work
Chain of IR (P06213 28-1382): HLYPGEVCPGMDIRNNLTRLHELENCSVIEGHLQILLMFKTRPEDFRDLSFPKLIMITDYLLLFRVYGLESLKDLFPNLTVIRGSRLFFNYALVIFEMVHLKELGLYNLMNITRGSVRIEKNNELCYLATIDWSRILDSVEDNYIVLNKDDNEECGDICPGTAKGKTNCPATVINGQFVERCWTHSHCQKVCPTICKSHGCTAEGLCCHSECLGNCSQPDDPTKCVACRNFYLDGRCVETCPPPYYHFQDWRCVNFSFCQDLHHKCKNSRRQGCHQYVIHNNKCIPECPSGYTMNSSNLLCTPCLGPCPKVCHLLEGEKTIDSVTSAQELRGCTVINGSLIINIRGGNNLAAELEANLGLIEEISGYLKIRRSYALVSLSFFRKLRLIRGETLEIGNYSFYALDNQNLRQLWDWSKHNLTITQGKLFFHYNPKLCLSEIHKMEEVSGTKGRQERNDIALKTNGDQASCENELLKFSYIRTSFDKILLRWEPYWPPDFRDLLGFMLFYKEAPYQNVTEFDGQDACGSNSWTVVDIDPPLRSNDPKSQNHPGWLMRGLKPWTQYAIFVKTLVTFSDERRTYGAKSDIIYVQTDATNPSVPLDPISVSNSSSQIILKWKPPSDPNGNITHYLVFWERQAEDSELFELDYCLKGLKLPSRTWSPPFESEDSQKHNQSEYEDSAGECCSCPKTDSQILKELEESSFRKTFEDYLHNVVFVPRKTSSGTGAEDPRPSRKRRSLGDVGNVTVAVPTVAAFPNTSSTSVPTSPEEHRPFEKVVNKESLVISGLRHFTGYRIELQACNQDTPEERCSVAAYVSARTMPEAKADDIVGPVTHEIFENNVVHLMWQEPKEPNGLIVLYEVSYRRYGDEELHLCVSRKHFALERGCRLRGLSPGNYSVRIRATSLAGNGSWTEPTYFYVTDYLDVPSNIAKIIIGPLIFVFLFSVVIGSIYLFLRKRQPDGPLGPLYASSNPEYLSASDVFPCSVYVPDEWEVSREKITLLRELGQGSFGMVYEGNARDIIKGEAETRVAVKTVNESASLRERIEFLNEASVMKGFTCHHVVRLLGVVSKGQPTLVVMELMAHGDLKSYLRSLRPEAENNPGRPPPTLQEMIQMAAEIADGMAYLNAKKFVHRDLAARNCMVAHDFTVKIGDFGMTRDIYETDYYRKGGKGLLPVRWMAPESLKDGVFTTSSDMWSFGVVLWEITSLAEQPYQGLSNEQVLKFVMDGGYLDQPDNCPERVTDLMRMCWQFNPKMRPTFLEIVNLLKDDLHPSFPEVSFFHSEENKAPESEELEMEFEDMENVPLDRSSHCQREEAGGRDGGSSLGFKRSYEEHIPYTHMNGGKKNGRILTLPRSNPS

UVW cells = assay: DCP cell death assay, drug alone, UVW; type: cell-based; conditions: Homo sapiens, 72 hrs, read-out: IC50 (DCP leakage)
HSV1716gfp = assay: GFP expression during infection with HSV1716gfp (drug toxicity to virus); type: cell-based, herpes simplex virus
HuH7 = type: cell-based, human
HepG2-luc = type: cell-based, human
CP70 = type: cell-based, human
Ovcar3 [6] = type: cell-based, human
One58 = type: cell-based, human
HCC cell lines = type: cell-based, human
HCC = conditions: monotherapy of HCC; cited from earlier work
SKOV3 [7] = type: cell-based, human
SPC111 = assay: combination with HSV1716, Chou-Talalay, SPC111; type: cell-based, human; conditions: for synergy/antagonism with HSV1716 on cell death (Chou-Talalay): SPC111, HSV1716 moi 0.5 and 0.05, 72 hours
non-sensitive cells = conditions: read-out: IC50 for non-sensitive cells, previously reported; cited from earlier work
Ovcar3 [8] = assay: DCP cell death assay, drug alone, Ovcar3; type: cell-based; conditions: Homo sapiens, OVCAR-3; Ovcar3, 72 hrs; read-out: IC50 (DCP leakage)
SKOV3 [9] = assay: DCP cell death assay, drug alone, SKOV3; type: cell-based; conditions: Homo sapiens, SK-OV-3; SKOV3, 72 hrs; read-out: IC50 (DCP leakage)
SPC-111 = assay: DCP cell death assay, drug alone, SPC-111; type: cell-based; conditions: Homo sapiens; SPC-111, 72 hrs; read-out: IC50 (DCP leakage)
RCC cell lines = conditions: read-out: IC50 in RCC cell lines, reported; cited from earlier work
[10] = system: breast carcinoma and melanoma cell lines; conditions: read-out: IC50 in breast carcinoma and melanoma cell lines, reported; cited from earlier work

## CS(=O)(=O)CCNCc1ccc(-c2ccc3ncnc(Nc4ccc(OCc5cccc(F)c5)c(Cl)c4)c3c2)o1 [Lapatinib, N-[3-chloro-4-[(3-fluorophenyl)methoxy]phenyl]-6-[5-[(2-methylsulfonylethylamino)methyl]-2-furyl]quinazolin-4-amine]
Virttu cell line panel; A-431, 72 h, read-out: IC50 (DCP leakage), range
  IC50: 4 to 30 µM
Virttu cell panel
  number of cell lines tested in which antagonism was detected: 8 of the 10
Hep3B
  synergy/antagonism with HSV1716 on cell death (Chou-Talalay): strongly synergistic
U87
  number of synergistic combinations out of 8: 2/8
  synergy/antagonism with HSV1716 on cell death (Chou-Talalay): some synergy
UVW
  synergy/antagonism with HSV1716 on cell death (Chou-Talalay): strongly synergistic
A431
  number of synergistic combinations out of 8: 1/8
  synergy/antagonism with HSV1716 on cell death (Chou-Talalay): some synergy
[1]
  tumour growth inhibition: some tumour growth inhibition until day 6
A431 cells [2]
  IC50: 0.15 µM
A431 cells [3]
  IC50: 0.16 µM
[4]
  IC50: 0.09 to 0.21 µM
[5]
  IC50: 3 to 12 µM

## S=C(NCc1ccc2c(c1)OCO2)N1CCN(c2ncnc3c2oc2ccccc23)CC1 [Amuvatinib, N-(benzo[d][1,3]dioxol-5-ylmethyl)-4-(benzofuro[3,2-d]pyrimidin-4-yl)piperazine-1-carbothioamide]
Flt3^D835Y
  IC50: 0.081 µM

## CCn1c(N)c(C(=O)NC)c(=O)c2ccc(C#C[C@@](C)(O)COC)nc21 [SAR131675, (R)-2-amino-1-ethyl-7-(3-hydroxy-4-methoxy-3-methylbut-1-ynyl)-N-methyl-4-oxo-1,4-dihydro-1,8-naphthyridine-3-carboxamide]
VEGFR3
  IC50: 0.02 µM

## CC(C)(C)c1cc(C=C(C#N)C#N)cc(Br)c1O [AG-1024, 2-(3-bromo-5-tert-butyl-4-hydroxybenzylidene)malononitrile]
IR
  IC50: 0.1 µM

## CNC(=O)c1cc(Oc2ccc(NC(=O)Nc3ccc(Cl)c(C(F)(F)F)c3)cc2)ccn1 [Sorafenib, 4-[4-[[4-chloro-3-(trifluoromethyl)phenyl]carbamoylamino]phenoxy]-N-methyl-pyridine-2-carboxamide]
Virttu cell line panel; most/all cell lines of panel, 72 hrs, read-out: IC50 (DCP leakage), range over cell lines
  IC50: 1 to 10 µM
UVW cells
  IC50: 0.1 µM
HSV1716gfp; CP70, moi 0.05, 72 hrs
  effect on GFP expression during HSV1716gfp infection: more marked inhibitory effect
HSV1716gfp; Hep3B, moi 0.05, 72 hrs
  effect on GFP expression during HSV1716gfp infection: more marked inhibitory effect
HSV1716gfp; HuH7, moi 0.05, 72 hrs
  effect on GFP expression during HSV1716gfp infection: small inhibitory effect at the 2.5 μM Sorafenib concentration
HSV1716gfp; One58, moi 0.05, 72 hrs
  effect on GFP expression during HSV1716gfp infection: more marked inhibitory effect
HSV1716gfp; Ovcar3, moi 0.05, 72 hrs
  effect on GFP expression during HSV1716gfp infection: more marked inhibitory effect
HSV1716gfp; SKOV3, moi 0.05, 72 hrs
  effect on GFP expression during HSV1716gfp infection: no effect on GFP expression
HSV1716gfp; SPC111, moi 0.05, 72 hrs
  effect on GFP expression during HSV1716gfp infection: more marked inhibitory effect
HSV1716gfp; U87, moi 0.05, 72 hrs
  effect on GFP expression during HSV1716gfp infection: small inhibitory effect at the 2.5 μM Sorafenib concentration
HSV1716gfp; UVW, moi 0.05, 72 hrs
  effect on GFP expression during HSV1716gfp infection: no effect on GFP expression
HSV1716gfp; all cell lines tested, moi 0.5, 72 hrs
  effect on GFP expression during HSV1716gfp infection: little effect on GFP expression
Virttu cell panel
  number of cell lines tested with clear synergy signals / synergism with HSV1716: 8/10
Hep3B
  synergy/antagonism with HSV1716 on cell death (Chou-Talalay): synergistically
HuH7
  synergy/antagonism with HSV1716 on cell death (Chou-Talalay): synergistically
HepG2-luc
  synergy/antagonism with HSV1716 on cell death (Chou-Talalay): synergistically
CP70
  synergy/antagonism with HSV1716 on cell death (Chou-Talalay): synergies occurred
Ovcar3 [6]
  synergy/antagonism with HSV1716 on cell death (Chou-Talalay): synergies occurred
UVW
  synergy/antagonism with HSV1716 on cell death (Chou-Talalay): no synergies
One58
  synergy/antagonism with HSV1716 on cell death (Chou-Talalay): no synergies
HCC cell lines
  synergy with HSV1716 on cell death (Chou-Talalay): strongly synergistic
HCC
  prolongation of median survival and time to progression: ~3 months
  reduction of the risk of death during year 1: 31%

## C#Cc1cccc(Nc2ncnc3cc(OCCOC)c(OCCOC)cc23)c1 [Erlotinib, N-(3-ethynylphenyl)-6,7-bis(2-methoxyethoxy)quinazolin-4-amine]
Virttu cell line panel; A-431, all other cell lines (other than A431), 72 hours, read-out: IC50 (DCP leakage), range
  IC50: 1 to 25 µM
Virttu cell panel
  overall synergy/antagonism with HSV1716 on cell death: mostly antagonistic
  number of cell lines tested in which antagonism was detected: 9 out of 10
HuH7
  number of synergistic combinations out of 8: 1/8
  synergy/antagonism with HSV1716 on cell death (Chou-Talalay): limited synergy
SKOV3 [7]
  number of synergistic combinations out of 8: 1/8
  synergy/antagonism with HSV1716 on cell death (Chou-Talalay): limited synergy
U87
  synergy/antagonism with HSV1716 on cell death (Chou-Talalay): synergistic
SPC111
  synergy/antagonism with HSV1716 on cell death (Chou-Talalay): limited synergy
SPC111; SPC111, synergy at moi 0.05
  number of synergistic combinations out of 8: 1/8
non-sensitive cells
  IC50: > 10 µM

## Cc1ccc(Nc2nccc(N(C)c3ccc4c(C)n(C)nc4c3)n2)cc1S(N)(=O)=O [Pazopanib, 5-[[4-[(2,3-Dimethyl-2H-indazol-6-yl)methylamino]-2-pyrimidinyl]amino]-2-methylbenzolsulfonamide]
Virttu cell line panel; Hep3B, HuH7, HepG2-luc, CP70, U87 and One58, 72 hrs, read-out: IC50 (DCP leakage), range
  IC50: 3 to 18 µM
UVW cells
  IC50: 0.3 µM
Ovcar3 [8]
  IC50: 40 µM
SKOV3 [9]
  IC50: 40 µM
SPC-111
  IC50: 40 µM
HSV1716gfp; CP70, moi 0.5 and 0.05, 72 hrs
  effect on GFP expression during HSV1716gfp infection: stimulated GFP expression
HSV1716gfp; HepG2-luc, both moi (0.5 and 0.05), 72 hrs
  effect on GFP expression during HSV1716gfp infection: little effect on GFP expression
HSV1716gfp; HuH7, moi 0.05, 72 hrs
  effect on GFP expression during HSV1716gfp infection: more potent inhibitory effect
HSV1716gfp; HuH7, moi 0.5, 72 hrs
  effect on GFP expression during HSV1716gfp infection: inhibited GFP expression
HSV1716gfp; One58, moi 0.05, 72 hrs
  effect on GFP expression during HSV1716gfp infection: more potent inhibitory effect
HSV1716gfp; One58, moi 0.5, 72 hrs
  effect on GFP expression during HSV1716gfp infection: inhibited GFP expression
HSV1716gfp; Ovcar3, moi 0.05, 72 hrs
  effect on GFP expression during HSV1716gfp infection: more potent inhibitory effect
HSV1716gfp; Ovcar3, moi 0.5, 72 hrs
  effect on GFP expression during HSV1716gfp infection: inhibited GFP expression
HSV1716gfp; SKOV3, moi 0.05, 72 hrs
  effect on GFP expression during HSV1716gfp infection: no inhibitory effects
HSV1716gfp; SKOV3, moi 0.5, 72 hrs
  effect on GFP expression during HSV1716gfp infection: inhibited GFP expression
HSV1716gfp; UVW, moi 0.05, 72 hrs
  effect on GFP expression during HSV1716gfp infection: no inhibitory effects
HSV1716gfp; UVW, moi 0.5, 72 hrs
  effect on GFP expression during HSV1716gfp infection: inhibited GFP expression
Virttu cell panel
  number of cell lines tested with clear synergy signals / synergism with HSV1716: 7/9
HuH7
  synergy/antagonism with HSV1716 on cell death (Chou-Talalay): limited synergy
CP70
  synergy/antagonism with HSV1716 on cell death (Chou-Talalay): synergistic
One58
  synergy/antagonism with HSV1716 on cell death (Chou-Talalay): synergistic
SPC111
  synergy/antagonism with HSV1716 on cell death (Chou-Talalay): limited synergy
RCC cell lines
  IC50: 30 to 60 µM
[10]
  IC50: 1 to 10 µM
